What all share (type): in vivo
Assay [1] deals with Ipomoea hederacea (IPOHE). Briefly: Post-emergence glasshouse herbicide test. Conditions: POST Application, 1000 g/h, after 13 days. The method, then: (§1) Seeds of a variety of test species are sown in standard soil in pots (Alopecurus myosuroides (ALOMY), Setaria faberi (SETFA), Echinochloa crus-galli (ECHCG), Solanum nigrum (SOLNI), Amaranthus retoflexus (AMARE), Ipomoea hederacea (IPOHE)). After cultivation for one day (pre-emergence) or after 8 days cultivation (post-emergence) under controlled conditions in a glasshouse (at 24/16° C., day/night; 14 hours light; 65% humidity), the plants are sprayed with an aqueous spray solution derived from the formulation of the technical active ingredient in acetone/water (50:50) solution containing 0.5% Tween 20 (polyoxyethelyene sorbitan monolaurate, CAS RN 9005-64-5). Compounds ae applied at 1000 g/h. The test plants are then grown in a glasshouse under controlled conditions in a glasshouse (at 24/16° C., day/night; 14 hours light; 65% humidity) and watered twice daily. After 13 days for pre and post-emergence, the test is evaluated for the percentage damage caused to the plant. The biological activities are shown in the following table on a five point scale (5=80-100%; 4=60-79%; 3=40-59%; 2=20-39%; 1=0-19%).

The subject of assay [2] is Amaranthus retoflexus (AMARE). Kind of assay: Post-emergence glasshouse herbicide test. Conditions: POST Application, 1000 g/h, after 13 days. The procedure:
as §1

The test system of assay [3] is Solanum nigrum (SOLNI). Kind of assay: Post-emergence glasshouse herbicide test. Conditions: POST Application, 1000 g/h, after 13 days. The method, then: as §1
Assay [4] deals with Alopecurus myosuroides (ALOMY). Kind of assay: Post-emergence glasshouse herbicide test. The following applies: POST Application, 1000 g/h, after 13 days. The procedure: as §1
In assay [5] the test system is Echinochloa crus-galli (ECHCG). Kind of assay: Post-emergence glasshouse herbicide test. Conditions: POST Application, 1000 g/h, after 13 days. The procedure:
as §1

Assay [6] has as its system Setaria faberi (SETFA). Kind of assay: Post-emergence glasshouse herbicide test. Conditions: POST Application, 1000 g/h, after 13 days. The method, then: as §1, with “Compounds ae applied at 1000 g/h.” left out
For assay [7], the system named is Ipomoea hederacea (IPOHE). Briefly: Pre-emergence glasshouse herbicide test. The following applies: PRE Application, 1000 g/h, after 13 days. The method, then:
as §1

In assay [8] the test system is Amaranthus retoflexus (AMARE). Kind of assay: Pre-emergence glasshouse herbicide test. The following applies: PRE Application, 1000 g/h, after 13 days. The procedure: as §1
The test system of assay [9] is Solanum nigrum (SOLNI). Kind of assay: Pre-emergence glasshouse herbicide test. The following applies: PRE Application, 1000 g/h, after 13 days. The method, then: as §1
Assay [10] deals with Alopecurus myosuroides (ALOMY). Kind of assay: Pre-emergence glasshouse herbicide test. The following applies: PRE Application, 1000 g/h, after 13 days. The procedure: as §1
The test system of assay [11] is Echinochloa crus-galli (ECHCG). Kind of assay: Pre-emergence glasshouse herbicide test. The following applies: PRE Application, 1000 g/h, after 13 days. The procedure:
as §1

Assay [12] has as its system Setaria faberi (SETFA). Briefly: Pre-emergence glasshouse herbicide test. Conditions: PRE Application, 1000 g/h, after 13 days. The procedure:
as §1

On to `C=Cc1cccc(-n2c(=O)c(C(=O)Nc3nnnn3C)nc3ccccc32)c1` [Compound 5.027], for which the “percentage damage caused to the plant, IPOHE” value in assay [1] and in assay [7] was 5 (5=80-100%) throughout. The “percentage damage caused to the plant, AMARE” value in [2] and in [8] was 5 (5=80-100%) throughout. Besides, the “percentage damage caused to the plant, SOLNI” value with Solanum nigrum (SOLNI) [3] and with Solanum nigrum (SOLNI) [9] was 5 (5=80-100%) each time. In addition, the “percentage damage caused to the plant, ALOMY” value in assay [4] and in assay [10] was 5 (5=80-100%) each time. Also, the “percentage damage caused to the plant, ECHCG” value in [5] and in [11] was 5 (5=80-100%) in each case. Also, the “percentage damage caused to the plant, SETFA” value in the assay on Setaria faberi (SETFA) [6] and in the assay on Setaria faberi (SETFA) [12] was 5 (5=80-100%) each time.
On to `Cn1nnnc1NC(=O)c1cc2cnc(Cl)cc2n(-c2ccccc2)c1=O` [Compound 2.001], for which the results for the “percentage damage caused to the plant, IPOHE” value in assay [1] and in assay [7] were 5 (5=80-100%) and 2 (2=20-39%), respectively. The “percentage damage caused to the plant, AMARE” value in [2] and in assay [8] was 5 (5=80-100%) each time. Also, the results for the “percentage damage caused to the plant, SOLNI” value in the assay on Solanum nigrum (SOLNI) [3] and with Solanum nigrum (SOLNI) [9] were 5 (5=80-100%) and 4 (4=60-79%), respectively. Moreover, the “percentage damage caused to the plant, ALOMY” value in assay [4] and in assay [10] was 1 (1=0-19%) each time. Besides, the “percentage damage caused to the plant, ECHCG” value in assay [5] and in assay [11] was 1 (1=0-19%) throughout. The “percentage damage caused to the plant, SETFA” value in the assay on Setaria faberi (SETFA) [6] and with Setaria faberi (SETFA) [12] was 1 (1=0-19%) each time.
`COc1ccc(-n2c(=O)c(C(=O)Nc3nnnn3C)nc3ccccc32)cc1F` [Compound 5.033]: the “percentage damage caused to the plant, IPOHE” value in assay [1] and in assay [7] was 5 (5=80-100%) each time. Also, the “percentage damage caused to the plant, AMARE” value in [2] and in assay [8] was 5 (5=80-100%) in each case. Further, the “percentage damage caused to the plant, SOLNI” value in the assay with Solanum nigrum (SOLNI) [3] and with Solanum nigrum (SOLNI) [9] was 5 (5=80-100%) in each case. In addition, the “percentage damage caused to the plant, ALOMY” value in assay [4] is 1 (1=0-19%); in assay [10], 2 (2=20-39%). The “percentage damage caused to the plant, ECHCG” value in assay [5] and in assay [11] was 5 (5=80-100%) throughout. The “percentage damage caused to the plant, SETFA” value with Setaria faberi (SETFA) [6] is listed as 4 (4=60-79%); in the assay on Setaria faberi (SETFA) [12], 1 (1=0-19%).
`Cc1cc(-n2c(=O)c(C(=O)Nc3nnnn3C)nc3ccccc32)ccc1Cl` [Compound 5.036]: the “percentage damage caused to the plant, IPOHE” value in [1] and in [7] was 5 (5=80-100%) in each case. Besides, the “percentage damage caused to the plant, AMARE” value in assay [2] and in [8] was 5 (5=80-100%) throughout. The “percentage damage caused to the plant, SOLNI” value in the assay with Solanum nigrum (SOLNI) [3] and in the assay with Solanum nigrum (SOLNI) [9] was 5 (5=80-100%) in each case. Besides, the “percentage damage caused to the plant, ALOMY” value is 2 (2=20-39%) in [4] and 3 (3=40-59%) in assay [10]. The “percentage damage caused to the plant, ECHCG” value in assay [5] was 5 (5=80-100%); in assay [11], 3 (3=40-59%). Besides, the “percentage damage caused to the plant, SETFA” value with Setaria faberi (SETFA) [6] and with Setaria faberi (SETFA) [12] was 4 (4=60-79%) each time.
Consider `Cn1nnnc1NC(=O)c1nc2cc(Cl)ccc2n(-c2ccccc2)c1=O` [Compound 5.007], for which the “percentage damage caused to the plant, IPOHE” value in assay [1] and in [7] was 5 (5=80-100%) throughout. Also, the “percentage damage caused to the plant, AMARE” value in [2] and in [8] was 5 (5=80-100%) each time. Moreover, the “percentage damage caused to the plant, SOLNI” value in the assay on Solanum nigrum (SOLNI) [3] and with Solanum nigrum (SOLNI) [9] was 5 (5=80-100%) throughout. For the same compound, the “percentage damage caused to the plant, ALOMY” value in assay [4] and in assay [10] was 2 (2=20-39%) in each case. The “percentage damage caused to the plant, ECHCG” value in [5] and in assay [11] was 2 (2=20-39%) in each case. Moreover, the “percentage damage caused to the plant, SETFA” value with Setaria faberi (SETFA) [6] and with Setaria faberi (SETFA) [12] was 5 (5=80-100%) throughout.
`Cn1nnnc1NC(=O)c1nc2ccc(C(F)(F)F)cc2n(-c2ccccc2)c1=O` [Compound 5.006]: the figures for the “percentage damage caused to the plant, IPOHE” value in assay [1] and in assay [7] were 5 (5=80-100%) and 4 (4=60-79%), respectively. For the same compound, the “percentage damage caused to the plant, AMARE” value in assay [2] and in assay [8] was 5 (5=80-100%) in each case. In addition, the “percentage damage caused to the plant, SOLNI” value with Solanum nigrum (SOLNI) [3] and with Solanum nigrum (SOLNI) [9] was 5 (5=80-100%) each time. For the same compound, the “percentage damage caused to the plant, ALOMY” value in assay [4] and in assay [10] was 3 (3=40-59%) in each case. Besides, the “percentage damage caused to the plant, ECHCG” value in assay [5] and in assay [11] was 4 (4=60-79%) throughout. Also, the entries for the “percentage damage caused to the plant, SETFA” value in the assay on Setaria faberi (SETFA) [6] and with Setaria faberi (SETFA) [12] were 4 (4=60-79%) and 3 (3=40-59%), respectively.
On to `Cn1nnnc1NC(=O)c1nc2ccccc2n(-c2ccc(OC(F)(F)F)cc2)c1=O` [Compound 5.030], for which the “percentage damage caused to the plant, IPOHE” value in [1] and in assay [7] was 5 (5=80-100%) throughout. Moreover, the “percentage damage caused to the plant, AMARE” value in [2] and in assay [8] was 5 (5=80-100%) throughout. Moreover, the “percentage damage caused to the plant, SOLNI” value in the assay with Solanum nigrum (SOLNI) [3] and in the assay on Solanum nigrum (SOLNI) [9] was 5 (5=80-100%) throughout. The “percentage damage caused to the plant, ALOMY” value in [4] and in assay [10] was 5 (5=80-100%) throughout. The “percentage damage caused to the plant, ECHCG” value in [5] and in assay [11] was 5 (5=80-100%) throughout. Besides, the “percentage damage caused to the plant, SETFA” value in the assay on Setaria faberi (SETFA) [6] and with Setaria faberi (SETFA) [12] was 5 (5=80-100%) in each case.
For the compound `Cc1ccc(-n2c(=O)c(C(=O)Nc3nnnn3C)nc3ccccc32)cc1` [Compound 5.012], the “percentage damage caused to the plant, IPOHE” value in assay [1] and in assay [7] was 5 (5=80-100%) in each case. In addition, the “percentage damage caused to the plant, AMARE” value in assay [2] and in [8] was 5 (5=80-100%) each time. The “percentage damage caused to the plant, SOLNI” value with Solanum nigrum (SOLNI) [3] and in the assay with Solanum nigrum (SOLNI) [9] was 5 (5=80-100%) each time. Moreover, the “percentage damage caused to the plant, ALOMY” value in [4] and in assay [10] was 2 (2=20-39%) throughout. In addition, the “percentage damage caused to the plant, ECHCG” value in assay [5] and in assay [11] was 5 (5=80-100%) each time. Moreover, the “percentage damage caused to the plant, SETFA” value is reported as 4 (4=60-79%) in the assay on Setaria faberi (SETFA) [6] and 3 (3=40-59%) in the assay with Setaria faberi (SETFA) [12].
Regarding `Cn1nnnc1NC(=O)c1nc2ccccc2n(-c2ccc(Br)cc2)c1=O` [Compound 5.032], the “percentage damage caused to the plant, IPOHE” value in assay [1] and in [7] was 5 (5=80-100%) in each case. Also, the “percentage damage caused to the plant, AMARE” value in assay [2] and in [8] was 5 (5=80-100%) throughout. Besides, the “percentage damage caused to the plant, SOLNI” value with Solanum nigrum (SOLNI) [3] and with Solanum nigrum (SOLNI) [9] was 5 (5=80-100%) in each case. For the same compound, the “percentage damage caused to the plant, ALOMY” value in assay [4] was 2 (2=20-39%); in assay [10] it was 4 (4=60-79%). In addition, the results for the “percentage damage caused to the plant, ECHCG” value in assay [5] and in assay [11] were 3 (3=40-59%) and 4 (4=60-79%), respectively. Moreover, the “percentage damage caused to the plant, SETFA” value with Setaria faberi (SETFA) [6] and in the assay on Setaria faberi (SETFA) [12] was 5 (5=80-100%) in each case.
